Paper PMC10151572, “The identification of viral ribonucleotide reductase encoded by ORF23 and ORF141 genes and effect on CyHV-2 replication” (Frontiers in Microbiology, 2023)

Experiments:
[1] = target: T1, CyHV-2 RR (ORF23-GST + ORF141-His) (Cyprinid herpesvirus 2, UniProt K7PBF0+K7PBQ3); test: RR activity, dCDP formation by HPLC after borate column; type: biochemical; details: CDP 80 μM with ATP 2.7 mM, dATP, dTTP, dGTP, UDP, ADP, GDP; both subunits needed; 50 mM HEPES-KOH, 5 mM MgCl2, 50 mM DTT, 20 mM ferrous ammonium sulfate; 1 h at 4°C
T1 construct: gene CyHV2_ORF23; recombinant ORF23-GST and ORF141-His mixed in vitro; RR described in general as two homodimers (alpha2beta2)

[2] = target: T1, CyHV-2 RR (ORF23-GST + ORF141-His); test: as above; type: biochemical; details: hydroxyurea 80 μM; 10 μg of both recombinant proteins; CDP 80 μM, ATP 2.7 mM, other nucleotides; 50 mM HEPES-KOH, 5 mM MgCl2, 50 mM DTT, 20 mM ferrous ammonium sulfate; 1 h at 4°C

SMILES	RR activity, dCDP formation by HPLC after borate column [1]	% activity reduction at 80 μM [2]
Nc1ccn([C@@H]2O[C@H](COP(=O)(O)OP(=O)(O)O)[C@@H](O)[C@H]2O)c(=O)n1 [CDP]	interaction between ORF23-GST and ORF141-His proteins is essential for catalyzing the reduction of CDP to	
NC(=O)NO [hydroxyurea]		52%
